We go through 13 compounds from ChEMBL document CHEMBL1131085, “Structure-activity relationships for a series of bis(phenylalkyl)amines: potent subtype-selective inhibitors of N-methyl-D-aspartate receptors” (J Med Chem, 1998).

What all share (type): cell-based, Oocyte
In assay [1] the target is Glutamate NMDA receptor; Grin1/Grin2b (Rattus norvegicus, UniProt P35439+Q00960). Briefly: Functional antagonism by electrical assays in Xenopus oocytes expressing the 1A/2B NMDA receptor.
In assay [2] the target is Glutamate NMDA receptor; Grin1/Grin2c (Rattus norvegicus, UniProt P35439+Q00961). The assay can be described thus: Functional antagonism by electrical assays in Xenopus oocytes expressing the 1A/2C NMDA receptor.
Sequence of Glutamate NMDA receptor; Grin1/Grin2c (Q00961 whole entry, other chains not shown): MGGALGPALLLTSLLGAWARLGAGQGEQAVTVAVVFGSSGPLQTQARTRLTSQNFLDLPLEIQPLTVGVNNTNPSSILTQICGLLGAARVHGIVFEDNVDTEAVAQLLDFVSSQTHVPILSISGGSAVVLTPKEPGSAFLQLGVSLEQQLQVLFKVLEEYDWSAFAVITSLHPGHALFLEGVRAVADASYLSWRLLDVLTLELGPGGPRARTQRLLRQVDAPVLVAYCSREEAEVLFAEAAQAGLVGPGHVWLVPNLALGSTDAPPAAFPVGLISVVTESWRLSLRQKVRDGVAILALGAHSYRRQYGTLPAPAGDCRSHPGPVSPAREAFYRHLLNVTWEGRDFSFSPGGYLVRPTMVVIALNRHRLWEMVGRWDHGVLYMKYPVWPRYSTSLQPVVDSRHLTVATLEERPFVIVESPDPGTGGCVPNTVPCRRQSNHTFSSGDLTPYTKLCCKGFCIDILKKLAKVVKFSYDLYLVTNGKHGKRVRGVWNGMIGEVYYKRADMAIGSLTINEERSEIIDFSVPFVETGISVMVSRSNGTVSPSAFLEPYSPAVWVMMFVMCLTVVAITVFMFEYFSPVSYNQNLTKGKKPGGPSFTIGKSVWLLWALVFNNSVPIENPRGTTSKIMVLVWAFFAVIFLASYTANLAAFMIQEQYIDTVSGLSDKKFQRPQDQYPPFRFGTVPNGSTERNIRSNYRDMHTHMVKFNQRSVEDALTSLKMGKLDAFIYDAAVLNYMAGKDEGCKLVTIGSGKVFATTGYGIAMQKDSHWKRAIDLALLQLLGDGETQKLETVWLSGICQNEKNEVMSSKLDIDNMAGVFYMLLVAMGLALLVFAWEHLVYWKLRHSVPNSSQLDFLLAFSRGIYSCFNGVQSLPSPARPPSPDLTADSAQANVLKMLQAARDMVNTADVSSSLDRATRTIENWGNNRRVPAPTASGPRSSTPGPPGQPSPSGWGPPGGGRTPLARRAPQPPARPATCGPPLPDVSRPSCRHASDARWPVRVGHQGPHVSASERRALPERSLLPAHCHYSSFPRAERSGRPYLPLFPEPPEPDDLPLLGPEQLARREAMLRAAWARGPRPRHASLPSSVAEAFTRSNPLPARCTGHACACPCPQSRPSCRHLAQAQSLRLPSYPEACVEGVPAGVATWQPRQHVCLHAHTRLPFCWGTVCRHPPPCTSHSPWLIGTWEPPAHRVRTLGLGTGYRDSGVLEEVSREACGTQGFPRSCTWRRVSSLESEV
Assay [3] concerns the target Glutamate NMDA receptor; Grin1/Grin2a (Rattus norvegicus, UniProt P35439+Q00959). The assay can be described thus: Functional antagonism by electrical assays in Xenopus oocytes expressing 1A/2A NMDA receptor subtype.

Sequence of Glutamate NMDA receptor; Grin1/Grin2a (Q00959 whole entry, other chains not shown): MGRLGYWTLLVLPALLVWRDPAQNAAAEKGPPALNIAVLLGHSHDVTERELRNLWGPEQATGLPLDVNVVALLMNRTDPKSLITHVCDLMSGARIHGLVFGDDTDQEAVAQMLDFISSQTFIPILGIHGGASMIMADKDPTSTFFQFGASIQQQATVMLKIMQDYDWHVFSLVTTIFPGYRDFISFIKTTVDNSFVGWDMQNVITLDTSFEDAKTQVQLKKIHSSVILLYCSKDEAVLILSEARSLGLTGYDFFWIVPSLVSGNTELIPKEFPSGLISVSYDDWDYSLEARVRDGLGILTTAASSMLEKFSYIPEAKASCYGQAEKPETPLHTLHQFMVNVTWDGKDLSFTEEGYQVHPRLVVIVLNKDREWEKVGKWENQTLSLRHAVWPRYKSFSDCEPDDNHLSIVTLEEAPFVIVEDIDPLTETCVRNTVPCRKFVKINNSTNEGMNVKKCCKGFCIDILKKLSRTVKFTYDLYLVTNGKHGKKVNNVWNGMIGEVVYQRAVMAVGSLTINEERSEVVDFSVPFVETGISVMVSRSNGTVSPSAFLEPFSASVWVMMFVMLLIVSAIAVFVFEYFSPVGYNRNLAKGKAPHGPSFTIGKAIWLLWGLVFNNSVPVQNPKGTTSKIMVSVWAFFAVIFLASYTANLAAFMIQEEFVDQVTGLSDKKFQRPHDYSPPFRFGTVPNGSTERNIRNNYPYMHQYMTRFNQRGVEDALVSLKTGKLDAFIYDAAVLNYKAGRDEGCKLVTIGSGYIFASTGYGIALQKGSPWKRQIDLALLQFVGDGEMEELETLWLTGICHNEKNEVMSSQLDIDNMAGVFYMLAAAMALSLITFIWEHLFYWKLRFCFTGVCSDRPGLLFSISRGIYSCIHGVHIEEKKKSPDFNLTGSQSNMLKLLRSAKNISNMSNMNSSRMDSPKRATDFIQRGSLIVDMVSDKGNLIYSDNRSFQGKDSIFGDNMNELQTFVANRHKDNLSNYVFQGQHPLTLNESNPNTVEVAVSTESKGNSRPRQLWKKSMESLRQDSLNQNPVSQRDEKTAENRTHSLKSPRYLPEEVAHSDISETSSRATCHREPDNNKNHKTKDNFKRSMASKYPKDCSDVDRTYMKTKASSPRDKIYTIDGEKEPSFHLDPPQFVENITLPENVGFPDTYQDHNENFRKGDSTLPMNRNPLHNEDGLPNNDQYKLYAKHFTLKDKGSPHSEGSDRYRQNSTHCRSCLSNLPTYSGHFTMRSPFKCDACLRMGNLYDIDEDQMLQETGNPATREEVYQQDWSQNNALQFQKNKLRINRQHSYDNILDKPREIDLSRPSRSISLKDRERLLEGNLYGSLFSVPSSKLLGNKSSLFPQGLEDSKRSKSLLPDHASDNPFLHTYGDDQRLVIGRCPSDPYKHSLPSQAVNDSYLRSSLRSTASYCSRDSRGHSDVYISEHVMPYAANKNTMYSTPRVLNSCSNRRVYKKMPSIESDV
Sequence of Glutamate NMDA receptor; Grin1/Grin2b (Q00960 whole entry, other chains not shown): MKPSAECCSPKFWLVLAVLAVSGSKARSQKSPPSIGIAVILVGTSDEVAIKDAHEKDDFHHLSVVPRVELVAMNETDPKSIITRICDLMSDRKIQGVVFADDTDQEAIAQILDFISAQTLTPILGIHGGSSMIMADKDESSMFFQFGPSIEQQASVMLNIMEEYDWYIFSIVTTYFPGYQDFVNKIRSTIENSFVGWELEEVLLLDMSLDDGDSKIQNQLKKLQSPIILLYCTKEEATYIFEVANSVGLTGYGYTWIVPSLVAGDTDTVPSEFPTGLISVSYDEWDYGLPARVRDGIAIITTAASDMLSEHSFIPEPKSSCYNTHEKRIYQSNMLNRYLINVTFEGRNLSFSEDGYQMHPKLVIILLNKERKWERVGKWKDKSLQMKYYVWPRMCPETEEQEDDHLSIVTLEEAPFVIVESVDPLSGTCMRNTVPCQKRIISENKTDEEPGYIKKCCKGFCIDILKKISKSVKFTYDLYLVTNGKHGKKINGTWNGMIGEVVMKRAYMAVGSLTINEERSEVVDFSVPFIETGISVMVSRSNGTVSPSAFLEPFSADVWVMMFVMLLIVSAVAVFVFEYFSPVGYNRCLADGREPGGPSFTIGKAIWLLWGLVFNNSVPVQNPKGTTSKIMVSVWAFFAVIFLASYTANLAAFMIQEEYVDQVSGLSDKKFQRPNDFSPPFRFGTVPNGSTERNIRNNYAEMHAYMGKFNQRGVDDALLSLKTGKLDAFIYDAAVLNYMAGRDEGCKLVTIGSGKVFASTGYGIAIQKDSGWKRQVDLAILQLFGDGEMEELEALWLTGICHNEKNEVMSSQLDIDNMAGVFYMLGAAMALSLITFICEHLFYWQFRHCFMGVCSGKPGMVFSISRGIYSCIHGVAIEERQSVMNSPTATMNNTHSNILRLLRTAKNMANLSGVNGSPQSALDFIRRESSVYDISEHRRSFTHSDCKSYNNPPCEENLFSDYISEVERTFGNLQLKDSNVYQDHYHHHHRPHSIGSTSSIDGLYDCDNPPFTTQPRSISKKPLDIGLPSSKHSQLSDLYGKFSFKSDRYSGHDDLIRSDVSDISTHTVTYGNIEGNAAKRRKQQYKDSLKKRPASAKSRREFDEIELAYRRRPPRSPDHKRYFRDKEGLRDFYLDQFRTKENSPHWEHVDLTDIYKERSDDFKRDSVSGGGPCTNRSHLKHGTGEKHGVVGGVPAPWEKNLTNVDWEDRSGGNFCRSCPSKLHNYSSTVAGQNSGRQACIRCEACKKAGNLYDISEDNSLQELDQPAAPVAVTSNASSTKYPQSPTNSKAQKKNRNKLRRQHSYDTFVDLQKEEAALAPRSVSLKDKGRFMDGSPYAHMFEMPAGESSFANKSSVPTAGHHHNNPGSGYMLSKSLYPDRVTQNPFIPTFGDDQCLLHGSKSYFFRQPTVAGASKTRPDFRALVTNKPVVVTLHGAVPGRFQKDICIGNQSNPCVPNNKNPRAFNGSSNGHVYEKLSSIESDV

A word on the IC50: it is the point on the concentration scale where inhibition reaches its midpoint. Regarding `Oc1ccc(CCNCCCCc2ccccc2)cc1`, the concentration for half-maximal inhibition (IC50) turned out to be 0.043 µM in assay [1], 65 µM in assay [2] and 15 µM in assay [3].
The matching figures for `Oc1ccc(CCOCCCCc2ccccc2)cc1`: 3.7 µM, > 100 µM and > 100 µM.
On the same counts, the results for `Oc1ccc(CCNCCCCCc2ccccc2)cc1` are 0.008 µM, 39 µM and 12 µM.
The matching figures for `c1ccc(CCCCNCCc2ccccc2)cc1`: 3.5 µM, 36 µM and 46 µM.
Turning to `c1ccc(CCCNCCc2ccccc2)cc1`, the IC50 in assay [1] was 7.3 µM; in assay [2], > 100 µM; in assay [3], > 100 µM.
For `CCN(CCCCc1ccccc1)CCc1ccc(O)cc1`, the IC50 in assay [1] amounted to 0.3 µM; in assay [2], 88 µM; in assay [3] it was 27 µM.
Take `Oc1ccc(CCNCCCc2ccccc2)cc1`: the concentration for half-maximal inhibition (IC50) in assay [1] is 0.096 µM; in assay [2], > 100 µM; in assay [3] it was 26 µM.
The matching figures for `Oc1ccc(CCCNCCCCCc2ccccc2)cc1`: 0.045 µM, 39 µM and 18 µM.
Regarding `Oc1ccc(CCNCCCCCCc2ccccc2)cc1`, the IC50 was 0.035 µM in assay [1], 30 µM in assay [2] and 17 µM in assay [3].
On the same counts, the results for `Oc1ccc(CCCNCCCCc2ccccc2)cc1` are 0.015 µM, 48 µM and 18 µM.
For `C[C@H](CCc1ccccc1)N[C@H](C)[C@@H](O)c1ccc(O)cc1`, the values for the IC50 in assay [1] and in assay [2] were 0.18 µM and 42 µM, respectively.
On to `Oc1ccc(CCN2CCC(Cc3ccccc3)CC2)cc1`, for which the IC50 in assay [1] was 0.2 µM; in assay [2] it was > 100 µM; in assay [3], 57 µM.
The matching figures for `c1ccc(CCN2CCC(Cc3ccccc3)CC2)cc1`: 1.1 µM, > 100 µM and > 100 µM.
